Measured values: patent US8686044B2, “Amide derivative, pest control agent containing the amide derivative, and use of the amide derivative” (Mitsui Chemicals Agro, Inc., priority 2008, dated 2014)

Experiments:
Type in all cases: in vivo
[1] = system: Laodelphax striatellus; experiment: Pesticidal test against Laodelphax striatellus (rice seedling spray); conditions: 144 h, concentration 100 ppm, 3-stage larvae, examined after 6 days, 25° C., read-out: pesticidal rate
Procedure, shortened: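 Rice seedlings sprayed with 2.5 ml acetone solution of compound at a predetermined concentration, air-dried, then infested with third-stage Laodelphax striatellus larvae in capped water-containing tubes at 25 °C. Living and dead insects counted after 6 days; ten larvae per group, two replicates.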

[2] = system: Musca domestica; experiment: Pesticidal test against Musca domestica (petri dish dry film); conditions: 24 h, concentration 100 ppm, female adults, examined after 1 day, 25° C., read-out: pesticidal rate
Procedure, shortened: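 Female adult houseflies were confined at 25° C in capped 9 cm petri dishes coated with an air-dried film from 1 ml acetone solution of compound (predetermined concentration). Mortality was scored 1 day later, two replicates of five per group.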

[3] = system: Blattella germanica; experiment: Pesticidal test against Blattella germanica (petri dish dry film); conditions: 24 h, concentration 100 ppm, female adults, examined after 1 day, 25° C., read-out: pesticidal rate
Procedure, shortened: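 Acetone solution of test compound at a predetermined concentration dried as a film in a 9 cm petri dish; female adult cockroaches released onto it and kept at 25° C. Living and dead counted after 1 day; five insects per group, two replicates.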

[4] = system: Choristoneura magnanima; experiment: Pesticidal test against Choristoneura magnanima (artificial feed dip); conditions: 144 h, 2-stage larvae, examined after 6 days, 25° C., read-out: pesticidal rate; for pest or weed control at 1 ppm: concentration 1 ppm
Procedure, shortened: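 Second-stage larvae, five per group in duplicate, fed artificial diet that had been immersed 30 s in test solution at a predetermined concentration and air-dried. Mortality scored at day 6, 25° C.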

[5] = system: Helicoverpa armigera; experiment: Pesticidal test against Helicoverpa armigera (cabbage leaf disk dip); conditions: foliar, 72 h, concentration 1 ppm, 2-stage larvae, examined after 3 days, 25° C., read-out: pesticidal rate
Procedure, shortened: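 Cabbage leaf disks were dipped for 30 s in test solution at a set concentration and air-dried. Second-instar larvae were placed one per hole and held at 25 °C, with live and dead counts taken after 3 days. Five larvae per group were tested in two replicates.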

[6] = system: Adoxophyes honmai; experiment: Pesticidal test against Adoxophyes honmai (artificial feed dip); conditions: 144 h, 2-stage larvae, examined after 6 days, 25° C., read-out: pesticidal rate; for pest or weed control at 1 ppm: concentration 1 ppm; for pest or weed control at 10 ppm: concentration 10 ppm
Procedure, shortened: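 Second-instar larvae, five per group in duplicate, were released onto air-dried feed slices previously immersed for 30 s in compound solution at a set concentration. Mortality was scored on day 6 at 25° C.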

[7] = system: Spodoptera litura; experiment: Pesticidal test against Spodoptera litura (cabbage leaf dip); conditions: foliar, 144 h, concentration 1 ppm, 2-stage larvae, examined after 6 days, 25° C., read-out: pesticidal rate
Procedure, shortened: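 Cabbage leaf pieces dipped 30 seconds in compound solution at a predetermined concentration and air-dried, then offered to second-stage larvae, five per group in two replicates. Held at 25° C. Living and dead larvae counted after 6 days.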

[8] = system: Plutella xylostella; experiment: Pesticidal test against Plutella xylostella (cabbage leaf dip); conditions: foliar, 144 h, concentration 1 ppm, 2-stage larvae, examined after 6 days, 25° C., read-out: pesticidal rate
Procedure, shortened: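 Second-stage larvae (5 per group, two replicates) were released onto air-dried cabbage leaf discs that had been immersed for 30 seconds in compound solution at a set concentration. Mortality was scored after 6 days at 25° C.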

O=C(Nc1c(Br)cc(C(F)(C(F)(F)F)C(F)(F)F)cc1C(F)(F)F)c1cccc(NC(=O)c2c(F)cccc2F)c1F [6-1596]
≥ 70%: pest or weed control at 100 ppm [1] | pest or weed control at 100 ppm [2] | pest or weed control at 100 ppm [3] | pest or weed control at 1 ppm [4] | pest or weed control at 1 ppm [5] | pest or weed control at 1 ppm [6] | pest or weed control at 1 ppm [7] | pest or weed control at 1 ppm [8]

O=C(Nc1cccc(C(=O)Nc2c(I)cc(C(F)(C(F)(F)F)C(F)(F)F)cc2C(F)(F)F)c1F)c1ccccc1 [6-1730]
≥ 70%: pest or weed control at 100 ppm [1] | pest or weed control at 100 ppm [2] | pest or weed control at 100 ppm [3] | pest or weed control at 1 ppm [4] | pest or weed control at 1 ppm [5] | pest or weed control at 1 ppm [6] | pest or weed control at 1 ppm [7] | pest or weed control at 1 ppm [8]

O=C(Nc1cccc(C(=O)Nc2c(I)cc(C(F)(C(F)(F)F)C(F)(F)F)cc2C(F)(F)F)c1F)c1cccc(F)c1 [6-1732]
≥ 70%: pest or weed control at 100 ppm [1] | pest or weed control at 100 ppm [2] | pest or weed control at 100 ppm [3] | pest or weed control at 1 ppm [4] | pest or weed control at 1 ppm [5] | pest or weed control at 1 ppm [6] | pest or weed control at 1 ppm [7] | pest or weed control at 1 ppm [8]

N#Cc1cccc(C(=O)Nc2cccc(C(=O)Nc3c(I)cc(C(F)(C(F)(F)F)C(F)(F)F)cc3C(F)(F)F)c2F)c1 [6-1750]
≥ 70%: pest or weed control at 100 ppm [1] | pest or weed control at 100 ppm [2] | pest or weed control at 100 ppm [3] | pest or weed control at 1 ppm [4] | pest or weed control at 1 ppm [5] | pest or weed control at 1 ppm [6] | pest or weed control at 1 ppm [7] | pest or weed control at 1 ppm [8]

O=C(Nc1cccc(C(=O)Nc2c(I)cc(C(F)(C(F)(F)F)C(F)(F)C(F)(F)F)cc2C(F)(F)F)c1F)c1ccc(F)cc1 (centres unmarked) [6-1811]
≥ 70%: pest or weed control at 100 ppm [1] | pest or weed control at 100 ppm [2] | pest or weed control at 100 ppm [3] | pest or weed control at 1 ppm [4] | pest or weed control at 1 ppm [5] | pest or weed control at 1 ppm [6] | pest or weed control at 1 ppm [7] | pest or weed control at 1 ppm [8]

CN(C(=O)c1cccnc1Cl)c1cccc(C(=O)Nc2c(Br)cc(C(F)(C(F)(F)F)C(F)(F)C(F)(F)F)cc2C(F)(F)F)c1 (centres unmarked) [7-382]
≥ 70%: pest or weed control at 100 ppm [1] | pest or weed control at 100 ppm [2] | pest or weed control at 100 ppm [3] | pest or weed control at 1 ppm [4] | pest or weed control at 1 ppm [5] | pest or weed control at 1 ppm [6] | pest or weed control at 1 ppm [7] | pest or weed control at 1 ppm [8]

CN(C(=O)c1cccc(C#N)c1)c1cccc(C(=O)Nc2c(I)cc(C(F)(C(F)(F)F)C(F)(F)F)cc2C(F)(F)F)c1 [7-444]
≥ 70%: pest or weed control at 100 ppm [1] | pest or weed control at 100 ppm [2] | pest or weed control at 100 ppm [3] | pest or weed control at 1 ppm [4] | pest or weed control at 1 ppm [5] | pest or weed control at 10 ppm [6] | pest or weed control at 1 ppm [7] | pest or weed control at 1 ppm [8]

CN(C(=O)c1cccnc1Cl)c1cccc(C(=O)Nc2c(I)cc(C(F)(C(F)(F)F)C(F)(F)C(F)(F)F)cc2C(F)(F)F)c1 (centres unmarked) [7-538]
≥ 70%: pest or weed control at 100 ppm [1] | pest or weed control at 100 ppm [2] | pest or weed control at 100 ppm [3] | pest or weed control at 10 ppm ([4]; concentration 10 ppm) | pest or weed control at 1 ppm [5] | pest or weed control at 1 ppm [6] | pest or weed control at 1 ppm [7] | pest or weed control at 1 ppm [8]

CN(C(=O)c1cccc(F)c1)c1cccc(C(=O)Nc2c(Br)cc(C(F)(C(F)(F)F)C(F)(F)F)cc2Br)c1F [7-1106]
≥ 70%: pest or weed control at 100 ppm [1] | pest or weed control at 100 ppm [2] | pest or weed control at 100 ppm [3] | pest or weed control at 1 ppm [4] | pest or weed control at 1 ppm [5] | pest or weed control at 1 ppm [6] | pest or weed control at 1 ppm [7] | pest or weed control at 1 ppm [8]

CN(C(=O)c1cccc(F)c1)c1cccc(C(=O)Nc2c(I)cc(C(F)(C(F)(F)F)C(F)(F)F)cc2I)c1F [7-1262]
≥ 70%: pest or weed control at 100 ppm [1] | pest or weed control at 100 ppm [2] | pest or weed control at 100 ppm [3] | pest or weed control at 1 ppm [4] | pest or weed control at 1 ppm [5] | pest or weed control at 1 ppm [6] | pest or weed control at 1 ppm [7] | pest or weed control at 1 ppm [8]

CN(C(=O)c1cccc(C#N)c1)c1cccc(C(=O)Nc2c(I)cc(C(F)(C(F)(F)F)C(F)(F)F)cc2I)c1F [7-1280]
≥ 70%: pest or weed control at 100 ppm [1] | pest or weed control at 100 ppm [2] | pest or weed control at 100 ppm [3] | pest or weed control at 1 ppm [4] | pest or weed control at 1 ppm [5] | pest or weed control at 1 ppm [6] | pest or weed control at 1 ppm [7] | pest or weed control at 1 ppm [8]

CN(C(=O)c1ccc(Cl)nc1)c1cccc(C(=O)Nc2c(I)cc(C(F)(C(F)(F)F)C(F)(F)F)cc2I)c1F [7-1303]
≥ 70%: pest or weed control at 100 ppm [1] | pest or weed control at 100 ppm [2] | pest or weed control at 100 ppm [3] | pest or weed control at 1 ppm [4] | pest or weed control at 1 ppm [5] | pest or weed control at 1 ppm [6] | pest or weed control at 1 ppm [7] | pest or weed control at 1 ppm [8]

CN(C(=O)c1cccc(F)c1)c1cccc(C(=O)Nc2c(Br)cc(C(F)(C(F)(F)F)C(F)(F)F)cc2C(F)(F)F)c1F [7-1576]
≥ 70%: pest or weed control at 100 ppm [1] | pest or weed control at 100 ppm [2] | pest or weed control at 100 ppm [3] | pest or weed control at 1 ppm [4] | pest or weed control at 1 ppm [5] | pest or weed control at 1 ppm [6] | pest or weed control at 1 ppm [7] | pest or weed control at 1 ppm [8]

CN(C(=O)c1cccc(C#N)c1)c1cccc(C(=O)Nc2c(I)cc(C(F)(C(F)(F)F)C(F)(F)F)cc2C(F)(F)F)c1F [7-1750]
≥ 70%: pest or weed control at 100 ppm [1] | pest or weed control at 100 ppm [2] | pest or weed control at 100 ppm [3] | pest or weed control at 1 ppm [4] | pest or weed control at 1 ppm [5] | pest or weed control at 1 ppm [6] | pest or weed control at 1 ppm [7] | pest or weed control at 1 ppm [8]

CN(C(=O)c1ccc(Cl)nc1)c1cccc(C(=O)Nc2c(I)cc(C(F)(C(F)(F)F)C(F)(F)F)cc2C(F)(F)F)c1F [7-1773]
≥ 70%: pest or weed control at 100 ppm [1] | pest or weed control at 100 ppm [2] | pest or weed control at 100 ppm [3] | pest or weed control at 1 ppm [4] | pest or weed control at 1 ppm [5] | pest or weed control at 10 ppm [6] | pest or weed control at 1 ppm [7] | pest or weed control at 1 ppm [8]

CN(C(=O)c1ccc(Cl)nc1)c1cccc(C(=O)Nc2c(I)cc(C(F)(C(F)(F)F)C(F)(F)C(F)(F)F)cc2C(F)(F)F)c1F (centres unmarked) [7-1851]
≥ 70%: pest or weed control at 100 ppm [1] | pest or weed control at 100 ppm [2] | pest or weed control at 100 ppm [3] | pest or weed control at 1 ppm [4] | pest or weed control at 1 ppm [5] | pest or weed control at 10 ppm [6] | pest or weed control at 1 ppm [7] | pest or weed control at 1 ppm [8]
